Test results taken from US20110287933A1, “Herbicidal composition for tolerant or resistant oilseed rape crops” (BAYER CROPSCIENCE AG, priority 2010, published 2011).

What was measured:
Format in all cases: in vivo
[1] = system: oilseed rape (GA-tolerant); assay: Greenhouse trial, crop plant compatibility in oilseed rape (GA-tolerant); conditions: 2-4 oilseed rape-leaf stage
Procedure: The trials were carried out under greenhouse conditions (test pots, diameter 8 cm, spray application using 300 l of water/hectare, 2 repetitions, 6 to 8 plants per pot).
Scoring was by visual comparison of the treated with the untreated controls (0-100% scale, 14-19 days after the application) (see details in the respective tables).

Lolium multiflorum = assay: Greenhouse trial, post-emergence herbicidal efficacy against Lolium multiflorum; conditions: scoring 14 days after application, g of ai/ha: A1.1 100, B1.1 5, C10 5, C11 15, combinations at the same rates
Procedure: (§1) The trials were carried out under greenhouse conditions (test pots, diameter 8 cm, spray application using 300 l of water/hectare, 2 repetitions, 6 to 8 plants per pot). Application was by post-emergence treatment; the species of the harmful plants and their stage of growth at the time of treatment are, indicated in the individual results tables. The application rates of the herbicidally active compounds used on their own or in combinations are likewise listed in the individual results tables.
(§2) Scoring was by visual comparison of the treated with the untreated controls (0-100% scale, 14-19 days after the application) (see details in the respective tables). The results (means for all plants per pot and means of two repetitions per pot and treatment) are lised in Tables 4 to 6 below.
(§3) 4.2 Abbreviations Used in Tables 4 to 6 • application rate g/ai=application rate in grams of active compound per hectare • ai=active ingredient (of an active compound content of 100%) • GA=glufosinate-ammonium • GA-tolerant=oilseed rape which is tolerant to GA (GMO) • E^C=expected value according to Colby, (E^C=A+B−A×B/100)=for ternary combinations: (A+B)+C−(A+B)×C/100 • E^A=expected value according to the addition method (E^A=A+B) • A=difference (%) between observed value−%−vs. expected value (%) (observed value minus expected value) • examination:—observed values for (A), (B) and (A)+(B) in % • scoring:—observed value (%) greater >than E^C/E^A: ->synergism (+Δ) • observed value (%) equal to =E^c/E^A->additive effect (+−0Δ) • observed value (%) smaller <than E^A/E^c->antagonism (−Δ)

Matricaria chamomilla = assay: Greenhouse trial, post-emergence herbicidal efficacy against Matricaria chamomilla; conditions: scoring 19 days after application, g of ai/ha: A1.1 100, B1.1 5, C12 50, combinations at the same rates
Procedure: as §1, §2, §3

Viola arvensis = assay: Greenhouse trial, post-emergence herbicidal efficacy against Viola arvensis; conditions: scoring 14 days after application, g of ai/ha: A1.1 100, B1.1 5, C1 25, C2 100, C3 12.5, C4 2.5, C5 50, C6 125, C7 250, C8 250, C9 5, combinations at the same rates
Procedure: as §1
Scoring was by visual comparison of the treated with the untreated controls (0-100% scale, 14-19 days after the application) (see details in the respective tables). The results (means for all plants per pot and means of two repetitions per pot and treatment) are lised in Tables 4 to 6 below. […]

[2] = Table 4, post-emergence, scoring 14 days after application, g of ai/ha: A1.1 100, B1.1 5, C1 25, C2 100, C3 12.5, C4 2.5, C5 50, C6 125, C7 250, C8 250, C9 5, combinations at the same rates, (75)* = selective only in IMI × GA tolerant crop plants
[3] = Table 5, post-emergence, scoring 14 days after application, g of ai/ha: A1.1 100, B1.1 5, C10 5, C11 15, combinations at the same rates
[4] = Table 6, post-emergence, scoring 19 days after application, g of ai/ha: A1.1 100, B1.1 5, C12 50, combinations at the same rates

Structure (SMILES)	Damage to crop plants (%) oilseed rape (GA-tolerant) (≦15-20% acceptable) [1, 2]	Herbicidal efficacy % Lolium multiflorum (Lolium multiflorum)	also measured
CP(=O)(O)CCC(N)C(=O)O (centres unmarked) [A1.1, glufosinate-ammonium]	10%	20%	Damage to crop plants (%) oilseed rape (GA-tolerant) (≦15-20% acceptable) [1, 3]: 10%; Damage to crop plants (%) oilseed rape (GA-tolerant) (≦15-20% acceptable) [1, 4]: 10%; Herbicidal efficacy % Matricaria chamomilla (Matricaria chamomilla): 95%
COC(=O)c1nc(-c2ccc(Cl)c(OC)c2F)cc(N)c1Cl [B1.1, methyl 4-amino-3-chloro-6-(4-chloro-2-fluoro-3-methoxyphenyl)pyridine-2-carboxylate]		0%	Herbicidal efficacy % Matricaria chamomilla (Matricaria chamomilla): 40%
O=C(O)c1nc(Cl)ccc1Cl [C1, clopyralid]	0%		
CCOC(=O)[C@@H](C)Oc1ccc(Oc2nc3ccc(Cl)cc3o2)cc1 [C3, fenoxaprop-P-ethyl]	15%		Herbicidal efficacy % Viola arvensis (Viola arvensis): 0%
C[C@@H](Oc1ccc(Oc2ncc(C(F)(F)F)cc2Cl)cc1)C(=O)O [C4, haloxyfop-p]			Herbicidal efficacy % Viola arvensis (Viola arvensis): 0%
Cc1cccc(C)c1N(Cn1cccn1)C(=O)CCl [C5, metazachlor]	0%		
CCCCCCCCSC(=O)Oc1cc(Cl)nnc1-c1ccccc1 [C7, pyridate]	0%		
CCCN(CCC)c1c([N+](=O)[O-])cc(C(F)(F)F)cc1[N+](=O)[O-] [C8, trifluralin]	0%		
COCc1cnc(C2=NC(C)(C(C)C)C(=O)N2)c(C(=O)O)c1 (centres unmarked) [C9, imazamox]	(75)* %		
CCSC(C)CC1CC(=O)C(/C(CC)=N/OC/C=C/Cl)=C(O)C1 (centres unmarked) [C10, clethodim]		50%	Damage to crop plants (%) oilseed rape (GA-tolerant) (≦15-20% acceptable) [1, 3]: 0%
CCCC(=NOCC)C1=C(O)CC(C2CCCSC2)CC1=O (centres unmarked) [C11, cycloxydim]		70%	
CC1(C)CON(Cc2ccccc2Cl)C1=O [C12, Clomazone]			Damage to crop plants (%) oilseed rape (GA-tolerant) (≦15-20% acceptable) [1, 4]: 15%; Herbicidal efficacy % Matricaria chamomilla (Matricaria chamomilla): 0%
